Measured values reported in patent US4220755A, “Fortimicin B derivatives and process for production thereof” (Abbott Laboratories, priority 1976, dated 1980).
Converted amounts (≈) assume the structure as drawn. Where two headings read alike, the source gives them in different places.

Legend:
[1] = system: Klebsiella pneumoniae KY4275 ATCC10031; test: MIC, agar dilution method, pH 8.0; assay type: cell-based; settings: ATCC10031; pH 8.0; Klebsiella pneumoniae KY4275; read-out: Minimum inhibition concentration (MIC), KP
Protocol: (§1) Measurement was carried out according to the agar dilution method, using a medium of pH 8.0, or the Japanese Antibiotic Medicament Standard, using a medium of pH 7.2 Units are in mcg/ml.
K.P.: Klebsiella pneumoniae KY4275 ATCC10031.

[2] = system: Proteus vulgaris KY4277 ATCC6897; test: MIC, agar dilution method, pH 8.0; assay type: cell-based
Protocol: as §1

[3] = system: Shigella sonnei KY4281 ATCC9290; test: MIC, agar dilution method, pH 8.0; assay type: cell-based; settings: ATCC9290; pH 8.0; Shigella sonnei KY4281; read-out: Minimum inhibition concentration (MIC), SS
Protocol: as §1

[4] = system: Eschericia coli KY4271 ATCC26; test: MIC, agar dilution method, pH 8.0; assay type: cell-based; settings: Escherichia coli
Protocol: as §1
E.C.: Eschericia coli KY4271 ATCC26

[5] = system: Staphylococcus aureus KY4279 ATCC6538P; test: MIC, agar dilution method, pH 8.0; assay type: cell-based; settings: pH 8.0, Staphylococcus aureus KY4279, read-out: Minimum inhibition concentration (MIC), SA
Protocol: as §1
S.A.: Staphylococcus aureus KY4279 ATCC6538P

[6] = system: Salmonella typhosa KY4278 ATCC9992; test: MIC, agar dilution method, pH 8.0; assay type: cell-based; settings: Salmonella enterica, pH 8, read-out: Minimum inhibition concentration (MIC), ST
Protocol: as §1
S.T.: Salmonella typhosa KY4278 ATCC9992

[7] = system: Bacillus subtilis KY4273; test: MIC, agar dilution method, pH 8.0; assay type: cell-based
Protocol: as §1
B.S.: Bacillus subtilis KY4273

[8] = system: Salmonella enteritidis G-14; test: MIC, agar dilution method, pH 7.2; assay type: cell-based; settings: Salmonella enterica, ENTERITIDIS, pH 7.2, read-out: Minimum inhibition concentration (MIC)
Protocol: as §1

[9] = system: Shigella sonnei ATCC9290; test: MIC, agar dilution method, pH 7.2; assay type: cell-based; settings: read-out: Minimum inhibition concentration (MIC)
Protocol: as §1

[10] = system: Escherichia coli NIHTC-2; test: MIC, agar dilution method, pH 7.2; assay type: cell-based; settings: Escherichia coli, NIHTC2, pH 7.2, read-out: Minimum inhibition concentration (MIC)
Protocol: as §1

[11] = system: Proteus vulgaris JJ; test: MIC, agar dilution method, pH 7.2; assay type: cell-based; settings: Proteus vulgaris, pH 7.2, read-out: Minimum inhibition concentration (MIC)
Protocol: as §1

[12] = system: Staphylococcus aureus Smith (A); test: MIC, agar dilution method, pH 7.2; assay type: cell-based; settings: Staphylococcus aureus, pH 7.2, read-out: Minimum inhibition concentration (MIC)
Protocol: as §1

[13] = system: Staphylococcus aureus 209-P; test: MIC, agar dilution method, pH 7.2; assay type: cell-based; settings: Staphylococcus aureus, 209P, pH 7.2, read-out: Minimum inhibition concentration (MIC)
Protocol: as §1

[14] = system: Eschericihia coli GN2411-5; test: MIC, agar dilution method, pH 7.2; assay type: cell-based; settings: Escherichia coli, GN2411, pH 7.2, read-out: Minimum inhibition concentration (MIC)
Protocol: as §1

[15] = system: Klebsiella pneumoniae KY4274; test: MIC, agar dilution method, pH 7.2; assay type: cell-based; settings: Klebsiella pneumoniae, KY4274, pH 7.2, read-out: Minimum inhibition concentration (MIC)
Protocol: as §1

[16] = system: Pseudomonas aeruginosa BMH# 1; test: MIC, agar dilution method, pH 7.2; assay type: cell-based; settings: Pseudomonas aeruginosa, pH 7.2, read-out: Minimum inhibition concentration (MIC)
Protocol: as §1

[17] = system: Pseudomonas aeruginosa UCLA 4184; test: MIC, agar dilution method, pH 7.2; assay type: cell-based; settings: Pseudomonas aeruginosa, UCLA4184, pH 7.2, read-out: Minimum inhibition concentration (MIC)
Protocol: as §1

[18] = system: Eschericihia coli 3100; test: MIC, agar dilution method, pH 7.2; assay type: cell-based, Escherichia coli; settings: Escherichia coli, 3100, pH 7.2, read-out: Minimum inhibition concentration (MIC)
Protocol: as §1

[19] = system: Providencia sp 164; test: MIC, agar dilution method, pH 7.2; assay type: cell-based; settings: pH 7.2; Providencia sp 164; 7**: gentamicin, producing acetyltransferase type II; read-out: Minimum inhibition concentration (MIC)
Protocol: as §1
7: gentamicin, producing acetyltransferase type II.

[20] = system: Pseudomonas aeruginosa R5 KY8512; test: MIC, agar dilution method, pH 7.2; assay type: cell-based; settings: R5KY8512, pH 7.2, read-out: Minimum inhibition concentration (MIC)
Protocol: as §1
6: neomycin, producing phosphotransferase type I and type II.

[21] = system: Escherichia coli 76-2; test: MIC, agar dilution method, pH 7.2; assay type: cell-based; settings: Escherichia coli, 762; pH 7.2; E. coli 76-2; 1**: gentamicin, producing adenylsynthetase; read-out: Minimum inhibition concentration (MIC)
Protocol: as §1
(§2) **1: gentamicin, producing adenylsynthetase.

[22] = system: Escherichia coli R12 Z-338; test: MIC, agar dilution method, pH 7.2; assay type: cell-based; settings: R12Z338, pH 7.2, E. coli R12 Z-338, 1**: gentamicin, producing adenylsynthetase, read-out: Minimum inhibition concentration (MIC)
Protocol: as §1, §2

[23] = system: Escherichia coli 57R/W677; test: MIC, agar dilution method, pH 7.2; assay type: cell-based; settings: 57R/W677, pH 7.2, read-out: Minimum inhibition concentration (MIC)
Protocol: as §1, §2

[24] = system: Klebsiella pneumoniae 3020 Y-60; test: MIC, agar dilution method, pH 7.2; assay type: cell-based; settings: Klebsiella pneumoniae, 3020Y60, pH 7.2, read-out: Minimum inhibition concentration (MIC)
Protocol: as §1, §2

[25] = system: Staphylococcus a ureus 226; test: MIC, agar dilution method, pH 7.2; assay type: cell-based, Staphylococcus aureus; settings: pH 7.2, read-out: Minimum inhibition concentration (MIC)
Protocol: as §1

[26] = system: Escherichia coli R20 KY8349; test: MIC, agar dilution method, pH 7.2; assay type: cell-based; settings: R20KY8349, pH 7.2, E. coli R20 KY8349, 5**: neomycin, producing phosphotransferase type I, read-out: Minimum inhibition concentration (MIC)
Protocol: as §1
5: neomycin, producing phosphotransferase type I.

[27] = system: Escherichia coli R17 Z343; test: MIC, agar dilution method, pH 7.2; assay type: cell-based; settings: R17Z343, pH 7.2, E. coli R17 Z343, 3**: kanamycin, producing acetyltransferase, read-out: Minimum inhibition concentration (MIC)
Protocol: as §1
(§3) 3: kanamycin, producing acetyltransferase.

[28] = system: Pseudomonas aeruginosa R9 KY8516; test: MIC, agar dilution method, pH 7.2; assay type: cell-based; settings: R9KY8516, pH 7.2, read-out: Minimum inhibition concentration (MIC)
Protocol: as §1, §3

[29] = system: Serratia marcescens 1065; test: MIC, agar dilution method, pH 7.2; assay type: cell-based; settings: Serratia marcescens, 1065, pH 7.2, read-out: Minimum inhibition concentration (MIC)
Protocol: as §1, §3

[30] = system: Escherichia coli R18 KY8321; test: MIC, agar dilution method, pH 7.2; assay type: cell-based; settings: R18KY8321, E. coli R18 KY8321, 2**: gentamicin, producing adenylsynthetase and neomycin phosphotransferase type II, read-out: Minimum inhibition concentration (MIC)
Protocol: as §1
2: gentamicin, producing adenylsynthetase and neomycin phosphotransferase

[31] = system: Pseudomonas aeruginosa R4 KY8511; test: MIC, agar dilution method, pH 7.2; assay type: cell-based; settings: R4KY8511, pH 7.2, read-out: Minimum inhibition concentration (MIC)
Protocol: as §1
(§4) 4: gentamicin, producing acetyltransferase type I.

[32] = system: Escherichia coli R19 KY8348; test: MIC, agar dilution method, pH 7.2; assay type: cell-based; settings: R19KY8348, pH 7.2, read-out: Minimum inhibition concentration (MIC)
Protocol: as §1, §4

[33] = ATCC6897, pH 8.0, Proteus vulgaris KY4277, read-out: Minimum inhibition concentration (MIC), PV
[34] = ATCC26, pH 8.0, E. coli KY4271, read-out: Minimum inhibition concentration (MIC), EC
[35] = pH 8.0, Bacillus subtilis KY4273, read-out: Minimum inhibition concentration (MIC), BS

## CO[C@H]1[C@@H](O)[C@H](N)[C@@H](O[C@H]2O[C@H]([C@H](C)N)CC[C@H]2N)[C@H](O)[C@@H]1N(C)CCNCCN [Compound 25, 4-N-[2-(2-aminoethyl)aminoethyl]fortimicin B]
[1]
  MIC: 5 µg/mL (≈ 11.5 µM)
[2]; [33]
  MIC: 5 µg/mL (≈ 11.5 µM)
[3]
  MIC: 5 µg/mL (≈ 11.5 µM)
[4]; ATCC26, pH 8, read-out: Minimum inhibition concentration (MIC), EC
  MIC: 1.25 µg/mL (≈ 2.88 µM)
[5]
  MIC: 0.63 µg/mL (≈ 1.45 µM)
[6]
  MIC: 1.25 µg/mL (≈ 2.88 µM)
[7]; Bacillus subtilis, KY4273, pH 8, read-out: Minimum inhibition concentration (MIC), BS
  MIC: 1.25 µg/mL (≈ 2.88 µM)

## CNCCN(C)[C@H]1[C@@H](O)[C@H](O[C@H]2O[C@H]([C@H](C)N)CC[C@H]2N)[C@@H](N)[C@H](O)[C@@H]1OC [Compound 26, 4-N-(2-methylaminoethyl)fortimicin B]
[1]
  MIC: 5 µg/mL (≈ 12.3 µM)
[2]; Proteus vulgaris, ATCC6897, pH 8, read-out: Minimum inhibition concentration (MIC), PV
  MIC: 1.25 µg/mL (≈ 3.08 µM)
[3]
  MIC: 5 µg/mL (≈ 12.3 µM)
[4]; [34]
  MIC: 0.16 µg/mL (≈ 0.395 µM)
[5]
  MIC: 0.04 µg/mL (≈ 0.0986 µM)
[6]
  MIC: 1.25 µg/mL (≈ 3.08 µM)
[7]; [35]
  MIC: 0.32 µg/mL (≈ 0.789 µM)

## CNCCC(O)CN(C)[C@H]1[C@@H](O)[C@H](O[C@H]2O[C@H]([C@H](C)N)CC[C@H]2N)[C@@H](N)[C@H](O)[C@@H]1OC (stereo partly drawn) [Compound 30, 4-N-[(R,S)-4-methylamino-2-hydroxybutyl]fortimicin B]
[1]
  MIC: 0.32 µg/mL (≈ 0.712 µM)
[2]; [33]
  MIC: 0.16 µg/mL (≈ 0.356 µM)
[3]
  MIC: 0.63 µg/mL (≈ 1.4 µM)
[4]; [34]
  MIC: 0.32 µg/mL (≈ 0.712 µM)
[5]
  MIC: 0.08 µg/mL (≈ 0.178 µM)
[6]
  MIC: 0.08 µg/mL (≈ 0.178 µM)
[7]; [35]
  MIC: 0.02 µg/mL (≈ 0.0445 µM)

## CO[C@H]1[C@@H](O)[C@H](N)[C@@H](O[C@H]2O[C@H]([C@H](C)N)CC[C@H]2N)[C@H](O)[C@@H]1N(C)C[C@@H](O)CN [Compound 31, 4-N-[(S)-3-amino-2-hydroxypropyl]fortimicin B]
[1]
  MIC: 2.5 µg/mL (≈ 5.93 µM)
[2]; [33]
  MIC: 1.25 µg/mL (≈ 2.97 µM)
[3]
  MIC: 2.5 µg/mL (≈ 5.93 µM)
[4]; [34]
  MIC: 2.5 µg/mL (≈ 5.93 µM)
[5]
  MIC: 0.16 µg/mL (≈ 0.38 µM)
[6]
  MIC: 0.63 µg/mL (≈ 1.49 µM)
[7]; [35]
  MIC: 0.32 µg/mL (≈ 0.759 µM)

## CNC[C@H](O)CN(C)[C@H]1[C@@H](O)[C@H](O[C@H]2O[C@H]([C@H](C)N)CC[C@H]2N)[C@@H](N)[C@H](O)[C@@H]1OC [Compound 32, 4-N-[(S)-3-methylamino-2-hydroxypropyl]fortimicin B]
[1]
  MIC: 5 µg/mL (≈ 11.5 µM)
[2]; [33]
  MIC: 2.5 µg/mL (≈ 5.74 µM)
[3]
  MIC: 2.5 µg/mL (≈ 5.74 µM)
[4]; [34]
  MIC: 2.5 µg/mL (≈ 5.74 µM)
[5]
  MIC: 0.16 µg/mL (≈ 0.367 µM)
[6]
  MIC: 0.63 µg/mL (≈ 1.45 µM)
[7]; [35]
  MIC: 0.63 µg/mL (≈ 1.45 µM)

## NC[C@H]1O[C@H](O[C@H]2[C@H](O)[C@@H](O[C@H]3O[C@H](CO)[C@@H](O)[C@H](N)[C@H]3O)[C@H](N)C[C@@H]2N)[C@H](O)[C@@H](O)[C@@H]1O [KA, kanamycin A, reference compound]
[8]
  MIC: 3.12 µg/mL (≈ 6.44 µM)
[9]
  MIC: 3.12 µg/mL (≈ 6.44 µM)
[10]
  MIC: 1.56 µg/mL (≈ 3.22 µM)
[11]
  MIC: 1.56 µg/mL (≈ 3.22 µM)
[12]
  MIC: 0.4 µg/mL (≈ 0.826 µM)
[13]
  MIC: 0.4 µg/mL (≈ 0.826 µM)
[14]
  MIC: 3.12 µg/mL (≈ 6.44 µM)
[15]
  MIC: > 100 µg/mL
[16]
  MIC: 25 µg/mL (≈ 51.6 µM)
[17]
  MIC: > 100 µg/mL
[18]
  MIC: 3.12 µg/mL (≈ 6.44 µM)
[19]
  MIC: > 100 µg/mL
[20]
  MIC: > 100 µg/mL
[21]
  MIC: > 100 µg/mL
[22]
  MIC: 100 µg/mL (≈ 206 µM)
[23]
  MIC: > 100 µg/mL
[24]
  MIC: > 100 µg/mL
[25]
  MIC: 0.78 µg/mL (≈ 1.61 µM)
[26]
  MIC: > 100 µg/mL
[27]
  MIC: 12.5 µg/mL (≈ 25.8 µM)
[28]
  MIC: > 100 µg/mL
[29]
  MIC: 100 µg/mL (≈ 206 µM)
[30]
  MIC: > 100 µg/mL
[31]
  MIC: 100 µg/mL (≈ 206 µM)
[32]
  MIC: 1.56 µg/mL (≈ 3.22 µM)
